Where two headings read alike, the source gives them in different places.
What was measured:
[1] = molecular target: T1, HCV NS3/4A protease complex (BMS strain) (UniProt P27958, C1454S/C1711G, species not given); test: Recombinant HCV NS3/4A protease complex FRET peptide assay; type: biochemical, Hepatitis C virus (HCV), genotype 1a; conditions: NS3/4A BMS strain, activity range class
T1 construct: for H77 and J4L6S; fused on or other part: Three-lysine solubilising tail at the C-terminus of NS4A
Text: Recombinant HCV NS3/4A Protease Complex FRET Peptide Assay
Serum from an HCV-infected patient was obtained from Dr. T. Wright, San Francisco Hospital. An engineered full-length cDNA (compliment deoxyribonucleic acid) template of the HCV genome (BMS strain) was constructed from DNA fragments obtained by reverse transcription-PCR (RT-PCR) of serum RNA (ribonucleic acid) and using primers selected on the basis of homology between other genotype 1a strains.
The H77 and J4L6S strains were used for production of recombinant NS3/4A protease complexes. […] Briefly, a three-lysine solubilizing tail was added at the 3′-end of the NS4A coding region. […] Briefly, the NS3/4A protease complex expression was induced with 0.5 millimolar (mM) Isopropyl β-D-1-thiogalactopyranoside (IPTG) for 22 hours (h) at 20° C. […] The cells were resuspended in lysis buffer (10 mL/g) consisting of 25 mM N-(2-Hydroxyethyl)piperazine-N′-(2-Ethane Sulfonic acid) (HEPES), pH 7.5, 20% glycerol, 500 mM Sodium Chloride (NaCl), 0.5% Triton X-100, 1 microgram/milliliter (“μg/mL”) lysozyme, 5 mM Magnesium Chloride (MgCl2), 1 μg/ml DnaseI, 5 mM β-Mercaptoethanol (βME), Protease inhibitor—Ethylenediamine Tetraacetic acid (EDTA) free (Roche), homogenized and incubated for 20 minutes (min) at 4° C. The homogenate was sonicated and clarified by ultra-centrifugation at 235000 g for 1 h at 4° C. Imidazole was added to the supernatant to a final concentration of 15 mM and the pH adjusted to 8.0. The crude protein extract was loaded on a Nickel—Nitrilotriacetic acid (Ni-NTA) column pre-equilibrated with buffer B (25 mM HEPES, pH 8.0, 20% glycerol, 500 mM NaCl, 0.5% Triton X-100, 15 mM imidazole, 5 mM βME). The sample was loaded at a flow rate of 1 mL/min. The column was washed with 15 column volumes of buffer C (same as buffer B except with 0.2% Triton X-100). The protein was eluted with 5 column volumes of buffer D (same as buffer C except with 200 mM Imidazole).
NS3/4A protease complex-containing fractions were pooled and loaded on a desalting column Superdex-S200 pre-equilibrated with buffer D (25 mM HEPES, pH 7.5, 20% glycerol, 300 mM NaCl, 0.2% Triton X-100, 10 mM βME). Sample was loaded at a flow rate of 1 mL/min. NS3/4A protease complex-containing fractions were pooled and concentrated to approximately 0.5 mg/ml.
The enzyme was stored at −80° C., thawed on ice and diluted prior to use in assay buffer. […] The sequence of this peptide is loosely based on the NS4A/NS4B natural cleavage site for the HCV NS3 protease except there is an ester linkage rather than an amide bond at the cleavage site. The peptide substrate was incubated with one of the three recombinant NS3/4A protease complexes, in the absence or presence of a compound of the present invention, and the formation of fluorescent reaction product was followed in real time using a Cytofluor Series 4000.
The reagents were as follow: HEPES and Glycerol (Ultrapure) were obtained from GIBCO-BRL. Dimethyl Sulfoxide (DMSO) was obtained from Sigma. β-Mercaptoethanol was obtained from Bio Rad.
Assay buffer: 50 mM HEPES, pH 7.5; 0.15 M NaCl; 0.1% Triton; 15% Glycerol; 10 mM βME. Substrate: 2 μM final concentration (from a 2 mM stock solution in DMSO stored at −20° C.). HCV NS3/4A protease type 1a (1b), 2–3 nM final concentration (from a 5 μM stock solution in 25 mM HEPES, pH 7.5, 20% glycerol, 300 mM NaCl, 0.2% Triton-X100, 10 mM βME).
The assay was performed in a 96-well polystyrene black plate from Falcon.

[2] = system: HCV replicon in Huh7 cells; test: microbe, parasite or virus in culture; type: cell-based, strain 1b; conditions: Hepatitis C virus, Huh-7, 96 h; Huh7 cells expressing HCV replicon, 4 days; activity range class
Text: Generation of HCV Replicon
This system enabled us to evaluate the effects of our HCV Protease compounds on HCV RNA replication. Briefly, using the HCV strain 1b sequence described in the Lohmann paper (Assession number: AJ238799), an HCV cDNA was generated encoding the 5′ internal ribosome entry site (IRES), the neomycin resistance gene, the EMCV (encephalomyocarditis viurs)-IRES and the HCV nonstructural proteins, NS3-NS5B, and 3′ non-translated region (NTR). In vitro transcripts of the cDNA were transfected into the human hepatoma cell line, Huh7. […] Resulting cell lines were characterized for positive and negative strand RNA production and protein production over time.
Huh7 cells, constitutively expressing the HCV replicon, were grown in Dulbecco's Modified Eagle Media (DMEM) containing 10% Fetal calf serum (FCS) and 1 mg/ml G418 (Gibco-BRL). Cells were seeded the night before (1.5×10^4 cells/well) in 96-well tissue-culture sterile plates. Compound and no compound controls were prepared in DMEM containing 4% FCS, 1:100 Penicillin/Streptomysin, 1:100 L-glutamine and 5% DMSO in the dilution plate (0.5% DMSO final concentration in the assay). Compound/DMSO mixes were added to the cells and incubated for 4 days at 37° C. After 4 days, plates were rinsed thoroughly with Phosphate-Buffered Saline (PBS) (3 times 150 μl). The cells were lysed with 25 μl of a lysis assay reagent containing the FRET peptide (RET S1, as described for the in vitro enzyme assay). The lysis assay reagent was made from 5× cell Luciferase cell culture lysis reagent (Promega #E153A) diluted to 1× with distilled water, NaCl added to 150 mM final, the FRET peptide diluted to 10 μM final from a 2 mM stock in 100% DMSO. The plate was then placed into the Cytofluor 4000 instrument which had been set to 340 nm excitation/490 nm emission, automatic mode for 21 cycles and the plate read in a kinetic mode. EC50 determinations were carried out as described for the IC50 determinations. […]
The percentage inhibition was calculated using the formula below: […]
The values were graphed and analyzed using XLFit to obtain the EC50 value.

SMILES	IC50 ([1]; read-out: IC50)	EC50 [2]	IC50 [1]
C=C[C@@H]1C[C@]1(NC(=O)[C@@H]1C[C@@H](Oc2nccc3cc(OC)ccc23)CN1C(=O)[C@@H](NC(=O)OC(C)(C)C)C(C)(C)C)C(=O)NS(=O)(=O)C1(CCC)CC1 [Cmpd 302, (1-{4-(6-Methoxy-isoquinolin-1-yloxy)-2-[1-(1-propyl-cyclopropanesulfonylaminocarbonyl)-2-vinyl-cyclopropylcarbamoyl]-pyrrolidine-1-carbonyl}-2,2-dimethyl-propyl)-carbamic acid tert-butyl ester]	< 100 nM	< 100 nM	–
C=C[C@@H]1C[C@]1(NC(=O)[C@@H]1C[C@@H](Oc2nccc3cc(OC)ccc23)CN1C(=O)[C@@H](NC(=O)OC(C)(C)C)C(C)(C)C)C(=O)NS(=O)(=O)C1(Cc2ccccc2)CC1 [Cmpd 303, {1-[2-[1-(1-Benzyl-cyclopropanesulfonylaminocarbonyl)-2-vinyl-cyclopropylcarbamoyl]-4-(6-methoxy-isoquinolin-1-yloxy)-pyrrolidine-1-carbonyl]-2,2-dimethyl-propyl}-carbamic acid tert-butyl ester]	100 to 1000 nM	100 to 1000 nM	–
C=C[C@@H]1C[C@]1(NC(=O)[C@@H]1C[C@@H](Oc2nccc3cc(OC)ccc23)CN1C(=O)[C@@H](NC(=O)OC(C)(C)C)C(C)(C)C)C(=O)NS(=O)(=O)C1(Cl)CC1 [Cmpd 304, {1-[2-[1-(1-Chloro-cyclopropanesulfonylaminocarbonyl)-2-vinyl-cyclopropylcarbamoyl]-4-(6-methoxy-isoquinolin-1-yloxy)-pyrrolidine-1-carbonyl]-2,2-dimethyl-propyl}-carbamic acid tert-butyl ester]	< 100 nM	< 100 nM	–
C=C[C@@H]1C[C@]1(NC(=O)[C@@H]1C[C@@H](Oc2nccc3ccccc23)CN1C(=O)[C@@H](NC(=O)OC(C)(C)C)C(C)(C)C)C(=O)NS(=O)(=O)C1(CC2CC2)CC1 [Cmpd 400]	–	100 to 1000 nM	< 100 nM
C=C[C@@H]1C[C@]1(NC(=O)[C@@H]1C[C@@H](Oc2nccc3ccccc23)CN1C(=O)[C@@H](NC(=O)OC(C)(C)C)C(C)(C)C)C(=O)NS(=O)(=O)C1(Cc2ccccc2)CC1 [Cmpd 401]	–	100 to 1000 nM	100 to 1000 nM
C=C[C@@H]1C[C@]1(NC(=O)[C@@H]1C[C@@H](Oc2cc(-c3ccccc3)nc3c(C)noc23)CN1C(=O)[C@@H](NC(=O)OC(C)(C)C)C(C)(C)C)C(=O)NS(=O)(=O)C1(Cc2ccccc2)CC1 [Cmpd 500]	< 100 nM	100 to 1000 nM	–
C=C[C@@H]1C[C@]1(NC(=O)[C@@H]1C[C@@H](Oc2cc(-c3ccccc3)nc3c(C)noc23)CN1C(=O)[C@@H](NC(=O)OC(C)(C)C)C(C)(C)C)C(=O)NS(=O)(=O)C1(CCC)CC1 [Cmpd 501]	–	100 to 1000 nM	< 100 nM
CCCC1(S(=O)(=O)NC(=O)[C@@]2(NC(=O)[C@@H]3C[C@@H](Oc4cc(-c5ccccc5)nc5c(C)noc45)CN3C(=O)[C@@H](NC(=O)OC(C)(C)C)C(C)(C)C)C[C@H]2CC)CC1 [Cmpd 502]	–	100 to 1000 nM	100 to 1000 nM
C=C[C@@H]1C[C@]1(NC(=O)C1C[C@@H](Oc2nc(-c3ccccc3)nc3ccccc23)CN1C(=O)[C@@H](NC(=O)OC(C)(C)C)C(C)(C)C)C(=O)NS(=O)(=O)C1(CC2CC2)CC1 (some centres unmarked) [Cmpd 600]	< 100 nM	< 100 nM	–
C=C[C@@H]1C[C@]1(NC(=O)[C@@H]1C[C@@H](Oc2nc(-c3ccccc3)nc3ccccc23)CN1C(=O)[C@@H](NC(=O)OC(C)(C)C)C(C)(C)C)C(=O)NS(=O)(=O)C1(Cc2ccccc2)CC1 [Cmpd 601]	< 100 nM	100 to 1000 nM	–
C=C[C@@H]1C[C@]1(NC(=O)[C@@H]1C[C@@H](Oc2nc(-c3ccccc3)nc3ccccc23)CN1C(=O)[C@@H](N)C(C)(C)C)C(=O)NS(=O)(=O)C1(CC2CC2)CC1 [Cmpd 602]	100 to 1000 nM	1000 to 10000 nM	–
C=C[C@@H]1C[C@]1(NC(=O)[C@@H]1C[C@@H](Oc2nc(-c3ccccc3)nc3ccccc23)CN1C(=O)[C@@H](NC(C)=O)C(C)(C)C)C(=O)NS(=O)(=O)C1(CC2CC2)CC1 [Cmpd 604]	< 100 nM	100 to 1000 nM	–
C=C[C@@H]1C[C@]1(NC(=O)[C@@H]1C[C@@H](Oc2nc(-c3ccccc3)nc3ccccc23)CN1C(=O)[C@@H](NC(=O)c1cnccn1)C(C)(C)C)C(=O)NS(=O)(=O)C1(CC2CC2)CC1 [Cmpd 605]	100 to 1000 nM	1000 to 10000 nM	–
C=C[C@@H]1C[C@]1(NC(=O)[C@@H]1CC(Oc2ccnc(-c3cccs3)c2)CN1C(=O)[C@@H](NC(=O)OC1CCCC1)C(C)(C)C)C(=O)NS(=O)(=O)C1(CC2CC2)CC1 (some centres unmarked) [Cmpd 700]	< 100 nM	< 100 nM	–
C=C[C@@H]1C[C@]1(NC(=O)[C@@H]1CC(Oc2ccnc(-c3cccs3)c2)CN1C(=O)[C@@H](NC(=O)OC1CCCC1)C(C)(C)C)C(=O)NS(=O)(=O)C1(Cc2ccccc2)CC1 (some centres unmarked) [Cmpd 701]	< 100 nM	100 to 1000 nM	–
C=C[C@@H]1C[C@]1(NC(=O)[C@@H]1C[C@@H](Oc2nccc3c(OC)cccc23)CN1C(=O)[C@@H](NC(=O)OC(C)(C)C)C(C)(C)C)C(=O)NS(=O)(=O)C1(CC)CC1 [Cpd 100]	–	< 100 nM	< 100 nM
C=C[C@@H]1C[C@]1(NC(=O)[C@@H]1C[C@@H](Oc2nccc3c(Cl)cccc23)CN1C(=O)[C@@H](NC(=O)OC(C)(C)C)C(C)(C)C)C(=O)NS(=O)(=O)C1(CC)CC1 [Cpd 101]	< 100 nM	< 100 nM	–
C=C[C@@H]1C[C@]1(NC(=O)[C@@H]1C[C@@H](Oc2ncc(Cl)c3ccccc23)CN1C(=O)[C@@H](NC(=O)OC(C)(C)C)C(C)(C)C)C(=O)NS(=O)(=O)C1(CC)CC1 [Cpd 102]	–	100 to 1000 nM	< 100 nM
C=C[C@@H]1C[C@]1(NC(=O)[C@@H]1C[C@@H](Oc2nccc3c(OC(F)(F)F)cccc23)CN1C(=O)[C@@H](NC(=O)OC(C)(C)C)C(C)(C)C)C(=O)NS(=O)(=O)C1(CC)CC1 [Cpd 103]	< 100 nM	100 to 1000 nM	–

— patent US7135462B2, “Hepatitis C virus inhibitors” (priority 2003, dated 2006)
